PubChem BioAssay AID330 (DTP/NCI, 2004)
Several values for one entry are separate records, joined by “and”; a condition that tells them apart may be missing. Identical values can stand only once. Inconclusive results and toxic doses are left out.

Tested on: P388 leukemia ip, CD2F1 mice, survival T/C
Assay: NCI In Vivo Anticancer Drug Screen. Data for tumor model P388 Leukemia (intraperitoneal) in CD2F1 (CDF1) mice
Settings: endpoint: median survival time, higher = longer survival
Outline: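 Mice carrying the transplanted tumor received test compound or vehicle. Survival was recorded in each group, and the value is the treated-group measurement divided by that of the vehicle-treated control group.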

[1] = dose: 50.0 mg/kg/injection, schedule: Q01DX005 (ip), vehicle: Klucel (hydroxypropylcellulose) (HPC)
[2] = dose: 100.0 mg/kg/injection, schedule: Q01DX005 (ip), vehicle: Klucel (hydroxypropylcellulose) (HPC)
[3] = dose: 50.0 mg/kg/injection, schedule: Q01DX009 (ip), vehicle: saline
[4] = dose: 100.0 mg/kg/injection, schedule: Q01DX009 (ip), vehicle: saline
[5] = dose: 60.0 mg/kg/injection, schedule: Q01DX005 (ip), vehicle: saline with Tween-80
[6] = dose: 120.0 mg/kg/injection, schedule: Q01DX005 (ip), vehicle: saline with Tween-80
[7] = dose: 200.0 mg/kg/injection, schedule: Q01DX009 (ip), vehicle: saline

CN(C)CCNc1ccc(NCCN(C)C)c2c1C(=O)c1ccccc1C2=O
T/C (dose: 2.5 mg/kg/injection, schedule: Q01DX009 (ip), vehicle: distilled water + Tween-80): 117 % of control | T/C (dose: 5.0 mg/kg/injection, schedule: Q01DX009 (ip), vehicle: distilled water + Tween-80): 124 % of control | T/C (dose: 20.0 mg/kg/injection, schedule: Q01DX009 (ip), vehicle: acid diluted with saline): 163 % of control | T/C (dose: 20.0 mg/kg/injection, schedule: Q01DX009 (ip), vehicle: distilled water + Tween-80): 159 % of control | T/C (dose: 40.0 mg/kg/injection, schedule: Q01DX009 (ip), vehicle: acid diluted with saline): 202 % of control | T/C (dose: 40.0 mg/kg/injection, schedule: Q01DX009 (ip), vehicle: distilled water + Tween-80): 162 % of control

CCN(CCO)CCc1cccc2ccccc12
T/C [1]: 104 % of control | T/C [2]: 99 % of control

O=S1(=O)CS/C(=N\C(=S)N(c2ccccc2)c2ccccc2)N1c1ccccc1
T/C (dose: 3.13 mg/kg/injection, schedule: Q04DX003 (ip), vehicle: saline with Tween-80): 106 % of control | T/C (dose: 6.25 mg/kg/injection, schedule: Q04DX003 (ip), vehicle: saline with Tween-80): 99 % of control | T/C (dose: 12.5 mg/kg/injection, schedule: Q04DX003 (ip), vehicle: saline with Tween-80): 94 % of control and 95 % of control | T/C (dose: 50.0 mg/kg/injection, schedule: Q04DX003 (ip), vehicle: saline with Tween-80): 86 % of control | T/C (dose: 200.0 mg/kg/injection, schedule: Q04DX003 (ip), vehicle: saline with Tween-80): 93 % of control

COc1ccc2c(=O)c3cc([N+](=O)[O-])ccc3n(C)c2c1
T/C (dose: 12.5 mg/kg/injection, schedule: Q01DX001 (ip), vehicle: saline with Tween-80): 100 % of control | T/C (dose: 25.0 mg/kg/injection, schedule: Q01DX001 (ip), vehicle: saline with Tween-80): 97 % of control | T/C (dose: 50.0 mg/kg/injection, schedule: Q01DX001 (ip), vehicle: saline with Tween-80): 94 % of control | T/C (dose: 100.0 mg/kg/injection, schedule: Q01DX001 (ip), vehicle: saline with Tween-80): 94 % of control

Cc1ccc[c]([Hg][Cl])c1N=Nc1ccccc1
T/C (dose: 9.5 mg/kg/injection, schedule: Q01DX009 (ip), vehicle: saline with Tween-80): 118 % of control | T/C (dose: 19.0 mg/kg/injection, schedule: Q01DX009 (ip), vehicle: saline with Tween-80): 110 % of control

COc1ccc2cc3cccc[n+]3cc2c1
T/C (dose: 0.19 mg/kg/injection, schedule: Q01DX005 (ip), vehicle: Klucel (hydroxypropylcellulose) (HPC)): 100 % of control | T/C (dose: 0.39 mg/kg/injection, schedule: Q01DX005 (ip), vehicle: Klucel (hydroxypropylcellulose) (HPC)): 110 % of control | T/C (dose: 0.78 mg/kg/injection, schedule: Q01DX005 (ip), vehicle: Klucel (hydroxypropylcellulose) (HPC)): 108 % of control and 97 % of control

NC(=S)c1ccc(C2Nc3ccc(Cl)cc3N2)cc1 (stereo not given)
T/C (dose: 12.5 mg/kg/injection, schedule: Q04DX002 (ip), vehicle: saline with Tween-80): 106 % of control | T/C (dose: 25.0 mg/kg/injection, schedule: Q04DX002 (ip), vehicle: saline with Tween-80): 94 % of control | T/C (dose: 50.0 mg/kg/injection, schedule: Q04DX002 (ip), vehicle: saline with Tween-80): 90 % of control

Nc1nc(N)c2nc(CCc3ccc(C(=O)NC(CCC(=O)O)C(=O)O)cc3)cnc2n1 (stereo not given)
T/C (dose: 1.5 mg/kg/injection, schedule: Q01DX009 (ip), vehicle: sodium bicarbonate): 171 % of control | T/C (dose: 1.75 mg/kg/injection, schedule: Q01DX009 (ip), vehicle: sodium bicarbonate): 204 % of control | T/C (dose: 2.0 mg/kg/injection, schedule: Q01DX009 (ip), vehicle: sodium bicarbonate): 214 % of control

Cc1ccc(C(=O)OC(CCN(C)C)c2ccccc2)cc1 (stereo not given)
T/C [3]: 109 % of control | T/C [4]: 106 % of control

CNCc1c(C)[nH]c2ccc(N(C)C)cc2c1=O
T/C [5]: 101 % of control | T/C [6]: 104 % of control

CC(C)C1OC2(CCCC2)OCC1(C)C (stereo not given)
T/C (dose: 100.0 mg/kg/injection, schedule: Q04DX003 (ip), vehicle: Klucel (hydroxypropylcellulose) (HPC)): 103 % of control | T/C (dose: 200.0 mg/kg/injection, schedule: Q04DX003 (ip), vehicle: Klucel (hydroxypropylcellulose) (HPC)): 103 % of control | T/C (dose: 400.0 mg/kg/injection, schedule: Q04DX003 (ip), vehicle: Klucel (hydroxypropylcellulose) (HPC)): 100 % of control

CN=C(C)c1c(O)n(-c2ccccc2)[nH]c1=O
T/C (dose: 100.0 mg/kg/injection, schedule: Q04DX002 (ip), vehicle: Klucel (hydroxypropylcellulose) (HPC)): 96 % of control | T/C (dose: 200.0 mg/kg/injection, schedule: Q04DX002 (ip), vehicle: Klucel (hydroxypropylcellulose) (HPC)): 102 % of control | T/C (dose: 400.0 mg/kg/injection, schedule: Q04DX002 (ip), vehicle: Klucel (hydroxypropylcellulose) (HPC)): 90 % of control

CCOC(=O)CNC(=O)/C=C\C(=O)NC(=O)OCC
T/C (dose: 3.7 mg/kg/injection, schedule: Q01DX009 (ip), vehicle: saline with Tween-80): 110 % of control | T/C (dose: 7.5 mg/kg/injection, schedule: Q01DX009 (ip), vehicle: saline with Tween-80): 107 % of control

O=C(Nc1ccccc1F)OCCCl
T/C [5]: 99 % of control | T/C [6]: 101 % of control | T/C (dose: 240.0 mg/kg/injection, schedule: Q01DX005 (ip), vehicle: saline with Tween-80): 93 % of control

Cc1nn(C(=O)c2ccncc2)c(C)c1N=Nc1ccc(Cl)cc1
T/C [3]: 99 % of control | T/C [4]: 91 % of control | T/C [7]: 90 % of control

CC(C)CC(=O)CC(=O)C(C)(C)C.CC(C)CC(=O)CC(=O)C(C)(C)C.CC(C)CC(=O)CC(=O)C(C)(C)C.[Cr]
T/C (dose: 50.0 mg/kg/injection, schedule: Q01DX009 (ip), vehicle: distilled water + alcohol): 97 % of control | T/C (dose: 100.0 mg/kg/injection, schedule: Q01DX009 (ip), vehicle: distilled water + alcohol): 107 % of control | T/C (dose: 200.0 mg/kg/injection, schedule: Q01DX009 (ip), vehicle: distilled water + alcohol): 103 % of control

CCn1cc(C(=O)NC(C)C(=O)NC(C)P(=O)(O)O)c(=O)c2ccc(C)nc21 (stereo not given)
T/C (dose: 100.0 mg/kg/injection, schedule: Q04DX002 (ip), vehicle: saline with Tween-80): 101 % of control | T/C (dose: 200.0 mg/kg/injection, schedule: Q04DX002 (ip), vehicle: saline with Tween-80): 102 % of control | T/C (dose: 400.0 mg/kg/injection, schedule: Q04DX002 (ip), vehicle: saline with Tween-80): 101 % of control

CC(C)C(N)CO (stereo not given)
T/C [3]: 107 % of control | T/C [4]: 106 % of control | T/C [7]: 100 % of control

C[CH2][Ge]([CH2]C)[CH2]/C=C\[CH2][Ge]([CH2]C)[CH2]C
T/C (dose: 50.0 mg/kg/injection, schedule: Q01DX009 (ip), vehicle: saline with Tween-80): 94 % of control | T/C (dose: 100.0 mg/kg/injection, schedule: Q01DX009 (ip), vehicle: saline with Tween-80): 117 % of control

COC(=O)C1C2CC3c4c(c5ccc(OC)cc5n4[N+](=O)[O-])CCN3CC2CC(OC(=O)c2cc(OC)c(OC)c(OC)c2)C1OC (stereo not given)
T/C (dose: 12.5 mg/kg/injection, schedule: Q01DX005 (ip), vehicle: Klucel (hydroxypropylcellulose) (HPC)): 96 % of control | T/C (dose: 25.0 mg/kg/injection, schedule: Q01DX005 (ip), vehicle: Klucel (hydroxypropylcellulose) (HPC)): 98 % of control | T/C [1]: 104 % of control | T/C [2]: 114 % of control | T/C (dose: 200.0 mg/kg/injection, schedule: Q01DX005 (ip), vehicle: Klucel (hydroxypropylcellulose) (HPC)): 88 % of control

CCCNC12CN3CN(CN(C3)C1)C2
T/C (dose: 100.0 mg/kg/injection, schedule: Q04DX003 (ip), vehicle: saline): 99 % of control | T/C (dose: 200.0 mg/kg/injection, schedule: Q04DX003 (ip), vehicle: saline): 100 % of control | T/C (dose: 400.0 mg/kg/injection, schedule: Q04DX003 (ip), vehicle: saline): 95 % of control

S=C1N(c2ccc(Br)cc2)C2=Nc3ccccc3SC(=C2N=Nc2ccccc2Cl)N1c1ccc(Cl)cc1
T/C (dose: 50.0 mg/kg/injection, schedule: Q01DX005 (ip), vehicle: saline with Tween-80): 97 % of control | T/C (dose: 100.0 mg/kg/injection, schedule: Q01DX005 (ip), vehicle: saline with Tween-80): 93 % of control | T/C (dose: 200.0 mg/kg/injection, schedule: Q01DX005 (ip), vehicle: saline with Tween-80): 93 % of control

COc1ccc(C(=O)C(=O)c2ccccc2)cc1
T/C (dose: 60.0 mg/kg/injection, schedule: Q01DX005 (ip), vehicle: Klucel (hydroxypropylcellulose) (HPC)): 105 % of control | T/C (dose: 120.0 mg/kg/injection, schedule: Q01DX005 (ip), vehicle: Klucel (hydroxypropylcellulose) (HPC)): 100 % of control | T/C (dose: 240.0 mg/kg/injection, schedule: Q01DX005 (ip), vehicle: Klucel (hydroxypropylcellulose) (HPC)): 98 % of control

O=CNc1ccc(/C=C\c2ccnc3ccccc23)cc1
T/C (dose: 3.13 mg/kg/injection, schedule: Q01DX009 (ip), vehicle: saline with Tween-80): 109 % of control | T/C (dose: 6.25 mg/kg/injection, schedule: Q01DX009 (ip), vehicle: saline with Tween-80): 100 % of control | T/C (dose: 12.5 mg/kg/injection, schedule: Q01DX009 (ip), vehicle: saline with Tween-80): 100 % of control | T/C (dose: 25.0 mg/kg/injection, schedule: Q01DX009 (ip), vehicle: saline with Tween-80): 91 % of control
